How the values were obtained:
[1] = Child, et al., J. Pharm. Sci., 66, 466 (1977); cited from earlier work
MMP-3 = target: T1, MMP-3 (Homo sapiens, UniProt P08254); experiment: P218 quenched fluorescence assay for MMP inhibition, MMP-3; format: biochemical; conditions: 6 μM P218 substrate, 25 min at 37° C., pH 6.5; read-out: MMP-3 Fluorogenic IC50
T1 construct: made in house; host or cells: CHO cells
Text: (§1) P218 Quenched Fluorescence Assay for MMP Inhibition:
(§2) The P218 quenched fluorescence assay (Microfluorometric Profiling Assay) is a modification of that originally described by Knight, et al., FEBS Lett. 296, 263 (1992) for a related substance and a variety of matrix metalloproteinases (MMPs) in cuvettes. The assay was run with each invention compound and the three MMPs, MMP-3, MMP-9 and MMP-2, analyzed in parallel, adapted as follows for a 96-well microtiter plate and a Hamilton AT® workstation.
(§3) P218 Fluorogenic Substrate: P218 is a synthetic substrate containing a 4-acetyl-7-methoxycoumarin (MCA) group in the N-terminal position and a 3-[2,4-dinitrophenyl]-L-2,3-diaminopropionyl (DPA) group internally. This is a modification of a peptide reported by Knight (1992) that was used as a substrate for matrix metalloproteinases. Once the P218 peptide is cleaved (putative clip site at the Ala-Leu bond), the fluorescence of the MCA group can be detected on a fluorometer with excitation at 328 nm and emission at 393 nm. P218 is currently being produced BACHEM exclusively for Bayer. P218 has the structure:
(§4) H-MCA-Pro-Lys-Pro-Leu-Ala-Leu-DPA-Ala-Arg-NH2 (MW 1332.2)
Recombinant Human CHO Stromelysin (MMP-3)
Recombinant Human CHO Pro-MMP-3: Human CHO pro-stromelysin-257 (pro-MMP-3) was expressed and purified as described by Housley, et al., J. Biol. Chem. 268, 4481 (1993).
Activation of Pro-MMP-3: Pro-MMP-3 at 1.72 μM (100 μg/mL) in 5 mM Tris at pH 7.5, 5 mM CaCl2, 25 mM NaCl, and 0.005% Brij-35 (MMP-3 activation buffer) was activated by incubation with TPCK (N-tosyl-(L)-phenylalanine chloromethyl ketone) trypsin (1:100 w/w to pro-MMP-3) at 25° C. for 30 min. The reaction was stopped by addition of soybean trypsin inhibitor (SBTI; 5:1 w/w to trypsin concentration). This activation protocol results in the formation of 45 kDa active MMP-3, which still contains the C-terminal portion of the enzyme.
(§5) Hamiltion Microlab AT Plus: The MMP-Profiling Assay is performed robotically on a Hamilton MicroLab AT Plus®. The Hamilton is programmed to: (1) serially dilute up to 11 potential inhibitors automatically from a 2.5 mM stock in 100% DMSO; (2) distribute substrate followed by inhibitor into a 96 well Cytofluor plate; and (3) add a single enzyme to the plate with mixing to start the reaction. Subsequent plates for each additional enzyme are prepared automatically by beginning the program at the substrate addition point, remixing the diluted inhibitors and beginning the reaction by addition of enzyme. In this way, all MMP assays were done using the same inhibitor dilutions.
(§6) Millipore Cytofluor II. Following incubation, the plate was read on a Cytofluor II fluorometric plate reader with excitation at 340 nm and emission at 395 nm with the gain set at 80.
(§7) Microfluorometric Reaction Buffer (MRB): Dilution of test compounds, enzymes, and P218 substrate for the microfluorometric assay were made in microfluorometric reaction buffer consisting of 50 mM 2-(N-morpholino)ethanesulfonic acid (MES) at pH 6.5 with 10 mM CaCl2, […] NaCl, 0.005% Brij-35 and 1% DMSO.
(§8) MMP Microfluorometric Profiling Assay. The assay is done with a final substrate concentration of 6 μM P218 and approximately 0.5 to 0.8 nM MMP with variable drug concentrations. The Hamilton is programmed to serially dilute up to 11 compounds from a 2.5 mM stock (100% DMSO) to 10× the final compounds concentrations in the assay. Initially, the instrument delivers various amounts of microfluoromentric reaction buffer (MRB) to a 96 tube rack of 1 ml Marsh dilution tubes. The instrument then picks up 20 μl of inhibitor (2.5 mM) from the sample rack and mixes it with a buffer in row A of the Marsh rack, resulting in a 50 μM drug concentration. The inhibitors are then serially diluted to 10, 5, 1, 0.2, 0.05 and 0.01 μM. […]

MMP-2 = MMP-2 (Homo sapiens, UniProt P08253); experiment: biochemical; conditions: MMP-2 Fluorogenic IC50
MMP-9 = target: T2, MMP-9 (Homo sapiens, UniProt P14780); experiment: P218 quenched fluorescence assay for MMP inhibition, MMP-9; format: biochemical; conditions: 6 μM P218 substrate, 25 min at 37° C., pH 6.5; read-out: MMP-9 Fluorogenic IC50
T2 construct: made in house
Text: as §1, §2, §3, §4
Preparation of Human Recombinant Pro-Gelatinase B (MMP-9):
Recombinant Human Pro-MMP-9: Human pro-gelatinase B (pro-MMP-9) derived from U937 cDNA as described by Wilhelm, et al. J. Biol. Chem. 264, 17213 (1989) was expressed as the full-length form using a baculovirus protein expression system. The pro-enzyme was purified using methods previously described by Hibbs, et al. J. Biol. Chem. 260, 2493 (1984).
Activation of Pro-MMP-9: […] 20 μg/mL in 50 mM Tris at pH 7.4, 10 mM CaCl2, 150 mM NaCl, and 0.005% Brij-35 (MMP-9 activation buffer) was activated by incubation with 0.5 mM p-aminophenylmercuric acetate (APMA) for 3.5 h at 37° C. The enzyme was dialyzed against the same buffer to remove the APMA.
as §5, §6, §7, §8

T2 sequence (P14780 107-707 limits assumed): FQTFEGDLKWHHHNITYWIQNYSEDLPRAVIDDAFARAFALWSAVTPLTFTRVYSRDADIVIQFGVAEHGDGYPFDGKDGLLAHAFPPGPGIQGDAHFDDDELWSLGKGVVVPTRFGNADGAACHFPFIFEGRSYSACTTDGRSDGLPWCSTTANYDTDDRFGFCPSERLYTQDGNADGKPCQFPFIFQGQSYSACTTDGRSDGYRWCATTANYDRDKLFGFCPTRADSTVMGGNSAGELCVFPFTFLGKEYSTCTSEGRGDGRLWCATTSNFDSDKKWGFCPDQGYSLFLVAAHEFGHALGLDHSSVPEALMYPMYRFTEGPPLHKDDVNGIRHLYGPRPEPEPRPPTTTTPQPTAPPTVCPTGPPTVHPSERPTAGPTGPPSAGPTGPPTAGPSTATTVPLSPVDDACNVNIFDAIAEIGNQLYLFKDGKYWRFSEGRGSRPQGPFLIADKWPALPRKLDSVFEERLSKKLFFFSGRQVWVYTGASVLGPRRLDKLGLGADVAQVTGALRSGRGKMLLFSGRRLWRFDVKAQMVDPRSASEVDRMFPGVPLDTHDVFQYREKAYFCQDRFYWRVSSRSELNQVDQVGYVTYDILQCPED
Chain of MMP-2 (P08253 110-660): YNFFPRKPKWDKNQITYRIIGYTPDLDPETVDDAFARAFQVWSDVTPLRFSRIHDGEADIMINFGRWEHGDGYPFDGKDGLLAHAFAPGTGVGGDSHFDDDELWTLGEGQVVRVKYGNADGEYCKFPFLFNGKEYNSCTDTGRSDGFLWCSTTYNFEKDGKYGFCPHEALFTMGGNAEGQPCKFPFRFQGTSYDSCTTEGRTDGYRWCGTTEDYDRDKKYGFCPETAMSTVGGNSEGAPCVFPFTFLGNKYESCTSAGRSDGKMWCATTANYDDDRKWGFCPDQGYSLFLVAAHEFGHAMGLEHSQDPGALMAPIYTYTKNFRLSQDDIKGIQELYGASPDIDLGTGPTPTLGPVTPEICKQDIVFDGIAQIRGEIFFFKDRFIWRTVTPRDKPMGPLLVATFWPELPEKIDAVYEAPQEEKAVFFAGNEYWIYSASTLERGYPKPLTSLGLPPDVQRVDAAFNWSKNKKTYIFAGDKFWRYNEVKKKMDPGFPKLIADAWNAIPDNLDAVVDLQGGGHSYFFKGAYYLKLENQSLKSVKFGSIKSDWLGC
T1 sequence (P08254 100-477): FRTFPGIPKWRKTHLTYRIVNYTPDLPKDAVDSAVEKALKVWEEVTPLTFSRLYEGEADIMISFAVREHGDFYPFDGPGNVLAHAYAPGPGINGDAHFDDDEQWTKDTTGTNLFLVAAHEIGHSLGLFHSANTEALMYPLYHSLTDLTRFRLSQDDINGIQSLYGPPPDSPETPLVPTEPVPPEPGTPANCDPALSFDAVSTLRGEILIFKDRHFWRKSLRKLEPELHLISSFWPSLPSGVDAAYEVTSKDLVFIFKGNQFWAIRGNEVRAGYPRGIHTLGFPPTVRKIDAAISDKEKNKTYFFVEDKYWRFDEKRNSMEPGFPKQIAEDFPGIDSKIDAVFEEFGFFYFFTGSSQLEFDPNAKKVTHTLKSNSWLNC

SMILES | activity as anti-inflammatory analgesic agents [1] | IC50 (MMP-3) [nM] | IC50 (MMP-2) [nM] | IC50 (MMP-9) [nM] | melting point [°C]
CC(CC(=O)c1ccc(-c2ccccc2)cc1)C(=O)O (centres unmarked) [XLVII] | inactive | – | – | – | –
O=C(c1ccc(-c2ccc(Cl)cc2)cc1)C1CCC(CSC(=S)N2CCCC2)C1C(=O)O (centres unmarked) [Example 3] | – | 31 | 21 | 67 | 177 to 178
O=C(CC(CCn1nnc2ccccc2c1=O)C(=O)O)c1ccc(-c2ccc(Cl)cc2)cc1 (single isomer, unassigned) [Example 21, α-[2-(4′-chloro[1,1′-biphenyl]-4-yl)-2-oxoethyl]-4-oxo-1,2,3,-Benzotriazine-3(4H)-butanoic acid] | – | 6.5 | 1.5 | 2.1 | –
O=C(CC(CCn1ncc2ccccc2c1=O)C(=O)O)c1ccc(-c2ccc(Cl)cc2)cc1 (stereo not drawn) [Example 18, R/S α-[2-(4′-chloro[1,1′-biphenyl]-4-yl)-2-oxoethyl]-1-oxo-2(1H)-phthalazinebutanoic acid] | – | 59 | 13 | 32 | –
O=C(CC(C(=O)O)c1ccccc1)c1ccc(-c2ccccc2)cc1 (centres unmarked) [XLIX] | inactive | – | – | – | –
O=C(c1ccc(-c2ccc(Cl)cc2)cc1)C1CCC(Cn2c(=O)oc3ccccc32)C1C(=O)O (centres unmarked) [Example 6] | – | 4.1 | 0.5 | 4.3 | –
O=C(CC(CCn1nnc2ccccc2c1=O)C(=O)O)c1ccc(-c2ccc(Cl)cc2)cc1 (single isomer, unassigned) [Example 20, α-[2-(4′-chloro[1,1′-biphenyl]-4-yl)-2-oxoethyl]-4-oxo-1,2,3,-Benzotriazine-3(4H)-butanoic acid] | – | 320 | 57 | 84 | –
O=C(O)C1[C@H](COCOCc2ccccc2)CC[C@@H]1C(=O)c1ccc(-c2ccc(Cl)cc2)cc1 (relative stereo) [Example 2] | – | 17 | 9.5 | 24 | 112 to 130
O=C(O)CC(C(=O)c1ccc(-c2ccccc2)cc1)c1ccccc1 (centres unmarked) [LXXVII] | inactive | – | – | – | –
O=C(c1ccc(-c2ccc(Cl)cc2)cc1)C1CCC(Cn2ncc3ccccc3c2=O)C1C(=O)O (centres unmarked) [Example 5] | – | 4.2 | 1.4 | 2.3 | –

Source: patent publication US6911449B2, “Inhibition of matrix metalloproteases by substituted biaryl oxobutyric acids” (Bayer Pharmaceuticals Corporation, priority 1996, dated 2005)
